# Measured values reported in patent US20090158465A1, “TRANSGENIC PLANTS WITH ENHANCED DROUGHT-RESISTANCE AND METHOD FOR PRODUCING THE PLANTS” (priority 2006, published 2009).
# Key:
# [1] = test system: stomata (guard cells) of abo1-1 and wild-type plants; experiment: Stomatal aperture (closing) bioassay with ABA; type: cell-based, Arabidopsis thaliana
# Description: Stomatal closing assays were conducted as described previously (Pei, Z. M. et al., Plant Cell 9:409-42 (1997)). Rosette leaves were floated in solutions containing 50 μM CaCl2, 10 mM KCl, 10 mM MES [2-(N-morpholino)ethanesulfonic acid]-Tris, pH 6.15, and exposed to light (150 μmol m-2 s-1) for 2 h. […] After ABA treatment for 2 h, stomatal apertures were measured as described previously (Pei, Z. M. et al., Plant Cell 9:409-42 (1997)). Values are means ±standard errors (SE) (n=30). Significance (P<0.05) was assessed by Student's t test.
# In order to determine the cause of the drought-resistant phenotype of the abo1-1 mutant, we performed experiments to determine whether this phenotype is related to increased sensitivity of stomatal closure to ABA. abo1-1 and wild-type plants were exposed to high humidity for 12 h to open stomata fully. […]
# [2] = test system: abo1-1 and wild-type seedlings; experiment: Seedling growth on MS medium containing ABA; type: in vivo, Arabidopsis thaliana; details: abo1-1 versus wild type; 5-day-old seedlings transferred to different concentrations of ABA, scored one week later
# Description: Plants were grown in 340-ml pots filled with a mixture of peat/forest soil and vermiculite (3:1) in a greenhouse at 22° C., with light intensity of 50 μmol m-2 s-1 and 70% rH under long-day conditions (16-h-light/8-h-dark cycle). Seedlings were germinated and grown on Murashige and Skoog (MS) medium (M5519; Sigma) supplemented with 3% (wt/vol) sucrose and 0.8% agar under the same growth conditions.
# We also analyzed the ABA sensitivities of abo1-plants in seed germination and seedling growth. Seedlings grown for 5 days on MS medium were transferred to MS media containing different concentrations of ABA. One week later, the plants were scored for visible changes. Without ABA, the root growth of abo1-1 plants was slower than that of wild-type plants but they had similar levels of shoot growth. […] The postgermination growth of abo1-1 seedlings was more impaired than that of the wild type, as indicated by the ratio of seedlings with green cotyledons to the total number of seedlings after germination for 1 week (FIG. 3D).
# [3] = test system: abo1-1 and wild-type leaves; experiment: Oxidative stress: leaves from soil-grown plants treated with MV or H2O2 (damage, ion leakage); set-up: species or system Arabidopsis thaliana
# Description: (§1) The leaves taken from plants grown in soil were treated with 1 μM MV. […] Electrolyte leakage (conductivity) is often used as an indicator of tissue damage. […] Rose Bengal is another reagent that generates H2O2 when exposed to the light. […] This was supported by ion leakage measurements at different time points (FIG. 4H).
# [4] = test system: abo1-1 and wild-type seedlings; experiment: Oxidative stress: seedlings on MS medium supplemented with MV; type: in vivo, Arabidopsis thaliana
# Text: ABA can induce the expression of genes encoding antioxidant enzymes (Guan, L. et al., Plant Physiol. 117:217-224 (1998); Zhu, D. et al., Plant Physiol. 106:173-178 (1994)). ABA also induces the production of reactive oxygen species that serve as a second messenger in ABA signaling in guard cells (Jiang, M. et al., Plant Cell Physiol. 42:1265-127 (2001); Pei, Z. M. et al., Nature 406:731-73 (2000)). In order to test whether the ABA sensitivity of abo1-1 seedlings might be connected with reactive oxygen species, we analyzed the response of abo1-1 mutant plants to oxidative stress. Methyl viologen (MV) (paraquat) inhibits electron transport in the reduction of NADP to NADPH during photosynthesis and thus enhances H2O2 production in chloroplasts under light (Suntres, Z. E. Toxicology 180:65-7 (2002)). Seedlings grown on MS medium for 5 days were transferred to new MS medium supplemented with different concentrations of MV. The abo1-1 seedlings grew well on MS medium supplemented with 3 μM MV, while more than 50% of wild-type seedlings were killed at this concentration (FIG. 4A) after a 5-day treatment. […] Seed germination was inhibited to similar extents for both abo1-1 and wild-type plants by various concentrations of MV. After radicles emerged, the young seedlings were more sensitive to MV.
# [5] = test system: abo1 mutant and wild-type seedlings; experiment: Oxidative stress: seedlings exposed to Rose Bengal; type: in vivo, Arabidopsis thaliana; details: 10 μM Rose Bengal for 3 days
# Description: as §1
compound,measurement,setting,value
"CC1=CC(=O)CC(C)(C)[C@@]1(O)/C=C/C(C)=C\C(=O)O [ABA, abscisic acid]",stomatal closure,"[1]; abo1-1 plants, 1 μM ABA for 2 h",almost completely closed
same,ABA concentration enhancing stomatal closure in abo1-1 to the same degree as 10 μM ABA in the wild type,"[1]; abo1-1 plants, preopened stomata, FIG. 2B",0.5 µM
same,stomatal closure,"[1]; wild-type plants, 20 μM ABA, same treatment time (2 h), data not shown",did not completely close
same,root and shoot growth,[2],more inhibited than that of the wild type
OO [H2O2],leaf damage,"[3]; wild-type leaves versus abo1-1 leaves, 10 mM H2O2 for 5 days",more damaged than abo1-1 leaves
"C[n+]1ccc(-c2cc[n+](C)cc2)cc1 [MV, Methyl viologen]",cotyledons affected (greening prevented),"[4]; abo1-1, 1.2 μM MV for 10 days",40%
same,seedling growth,"[4]; abo1-1 seedlings, 3 μM MV, 5-day treatment",grew well
same,seedling survival,"[4]; abo1 mutant seedlings, 6 μM MV",still survived
same,seedlings with cotyledon greening prevented,"[4]; wild-type seedlings, 1.2 μM MV for 10 days",more than 90%
same,seedlings killed,"[4]; wild-type seedlings, 3 μM MV, 5-day treatment",more than 50%
same,seedling survival,"[4]; wild-type seedlings, 4 μM MV",completely killed all
same,"ion leakage (electrolyte leakage, conductivity)","[3]; abo1-1 leaves versus wild type, 1 μM MV",substantially less ion leakage than the wild-type leaves
same,leaf damage,"[3]; abo1-1 leaves, 1 μM MV, after 5 days",enhanced anthocyanin pigmentation but without any apparent chlorotic symptom
same,leaf damage,"[3]; wild-type leaves, 1 μM MV, after 5 days",severely damaged and displayed chlorotic spots or bleaching
O=C([O-])c1c(Cl)c(Cl)c(Cl)c(Cl)c1-c1c2cc(I)c(=O)c(I)c-2oc2c(I)c([O-])c(I)cc12.[Na+].[Na+] [Rose Bengal],cotyledon damage,[5]; abo1 mutant,no chlorotic symptom observed
same,cotyledon damage,[5]; wild-type seedlings,severely damaged the cotyledons
